From patent US20250041429A1, “COMPOUND HAVING BTK PROTEIN DEGRADATION ACTIVITY, AND MEDICAL USES THEREOF” (UBIX THERAPEUTICS, INC., priority 2021, published 2025)

Target: T1, BTK protein (Homo sapiens, UniProt Q06187)
T1 construct: endogenous in cells; host or cells: TMD-8 cells
Test: Measurement of BTK protein degradation ability in TMD-8 cells (Western blotting)
Type: cell-based
Conditions: harvested after 24 hours; for BTK degradation (%) 10 nM: compound 10 nM; for BTK degradation (%) 100 nM: compound 100 nM; for BTK degradation (%) 1 nM: compound 1 nM
Procedure: TMD-8, RAMOS, or 293T BTK MUT (C481S) cells were treated with the synthesized compounds, and then the amount of BTK protein present in the cells was measured using Western blotting detection. The protocol for the experiment conducted using TMD-8 cells was as follows:
[Culture] TMD-8 cells were resuspended in RPMI1640 MEDIUM (Hyclone, SH30027.01), 10% FBS (Hyclone, SV30207.02), and 1% Penicillin-streptomycin (Welgene, LS 202-02) media, and 1 mL of this suspension was seeded in a 12-well plate at a cell concentration of 1×10^6/mL.
[Compound treatment] The 12-well plate was treated as follows: The 10 mM stock was serially diluted 1/10 with DMSO (3 μL+27 μL DMSO), and cells were treated with compounds at final concentrations of 0.1, 1, 10 μM or 0.0001, 0.001, 0.01, 0.1 μM, and harvested after 24 hours. In the negative control group, DMSO diluted 1/10 was added to the media. (3 μL DMSO+27 μL media)
[Harvest] Each well was pipetted with a 1 mL pipette, collected in a 1.5 mL microtube, and centrifuged (500 g, 5 min, 4° C.). After removing the supernatant, it was washed with PBS and centrifuged again (500 g, 5 min, 4° C.). The supernatant was removed and the pellet was collected.
[Cell lysis and Sample preparation] lysis buffer was prepared as follows: RIPA buffer (Biosesang, RC2038-050-00), 0.5 mM PMSF (SIGMA, P7626) and 1× Protease/Phosphatase Inhibitor (Cell signaling, 5872S) were added at 60-70 μL per well and left on ice for 30 minutes. (Vortexing at 0 and 30 minutes, respectively), followed by sonication (10 seconds pulse, 30 seconds rest, 5 cycles, 70% amplification) and centrifuge (15000 g, 15 min, 4° C.). Only the supernatant was collected and transferred to a new microtube. The samples were diluted by ½ with RIPA buffer in a 96-well plate. 200 μL of the mixture A:B=50:1 of the BCA Protein Assay Kit (iNtRON, 21071) was added each, stayed at 37° C. for 30 minutes, and cooled for 10 minutes. Afterwards, absorbance was measured at 562 nm using BioTek's SYNERGY H1 microplate reader. After making a sample by quantifying the protein using the measured value, it was boiled at 70° C. for 10 minutes. The sample buffer used at this time was a mixture of NuPAGE or Bolt 4× sample buffer (Invitrogen) and each 10× sample reducing agent according to the gel to be used. RIPA buffer was used for protein dilution.
[Western blotting detection method] The same amount of sample was loaded on NuPAGE or Bolt Bis-tris 4-12% gradient gel and run (200 V, 35 minutes). It was transferred to a […] NC membrane using Trans-blot Turbo (BIO-RAD) (1.3 A constant, 25 V limit, 15 minutes). For blocking, skim milk or Intercept Blocking Buffer (LI-COR, 927-60001): 0.1% TBST=1:1 was used at room temperature for 1 hour. Anti BTK Rabbit (1:1,000 in 5% skim milk/0.2% TBST, size: 77 kDa, Cell signaling Technology) was reacted at 4° C. for 16 hours or at room temperature for 2 hours. Anti GAPDH Rabbit (1:10,000 in 5% BSA/0.2% TBST, size: 36 kDa, GENETEX) and Anti β-actin mouse (1:10,000 in 5% BSA/0.2% TBST, RT, size: 43 kDa, GENETEX) were reacted at room temperature for 1 hour or 3 hours. The samples were washed 3 times with 0.5% TBST for 5 minutes each. Secondary antibodies, Anti-Rabbit IgG (1:5,000 in 5% Skim milk/TBST, CST), IRDye® 800CW Goat anti-Rabbit IgG Secondary Antibody (1:10,000 in 5% skim/TBST, RT 45 min), IRDye® 680RD Goat anti-Mouse IgG Secondary Antibody (1:10,000 in 5% skim/TBST, RT 45 min) were added depending on each sample and reacted for 45 minutes on a rocker at room temperature. The samples were washed 5 times with 0.5% TBST for 5 minutes each and detected with LI-COR's Odyssey. At this time, BTK was detected using SuperSignal West Pico PLUS Chemiluminescent Substrate or SuperSignal West femto Maximum Sensitivity Substrate, and house-keeping genes were detected as is.

T1 sequence (Q06187 whole entry): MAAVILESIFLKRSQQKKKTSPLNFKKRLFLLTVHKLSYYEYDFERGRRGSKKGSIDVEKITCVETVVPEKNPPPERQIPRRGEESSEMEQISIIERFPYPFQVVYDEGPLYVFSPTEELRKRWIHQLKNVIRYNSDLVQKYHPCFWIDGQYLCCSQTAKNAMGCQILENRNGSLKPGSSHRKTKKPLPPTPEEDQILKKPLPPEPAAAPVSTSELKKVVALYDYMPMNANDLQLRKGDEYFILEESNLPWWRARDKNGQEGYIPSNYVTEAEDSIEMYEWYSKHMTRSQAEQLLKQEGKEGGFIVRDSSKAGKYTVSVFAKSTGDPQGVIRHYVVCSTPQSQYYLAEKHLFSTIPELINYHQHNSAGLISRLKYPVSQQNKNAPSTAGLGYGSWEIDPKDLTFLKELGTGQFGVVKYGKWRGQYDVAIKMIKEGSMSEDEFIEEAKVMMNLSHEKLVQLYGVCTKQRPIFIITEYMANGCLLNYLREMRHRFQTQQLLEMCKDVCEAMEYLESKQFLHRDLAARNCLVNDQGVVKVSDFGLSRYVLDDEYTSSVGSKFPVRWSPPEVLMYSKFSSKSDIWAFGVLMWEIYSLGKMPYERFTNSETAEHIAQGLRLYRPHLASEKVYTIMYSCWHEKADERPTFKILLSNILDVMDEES

BTK degradation (%) 10 nM [%] | BTK degradation (%) 100 nM [%] | BTK degradation (%) 1 nM [%] | SMILES
76 | 93 | 15.5 | Cc1c(NC(=O)N2CC(OC(C)C)C2)cc(F)cc1-c1ccnc(Nc2ccc(N3CCN(CC4CCN(c5ccc6c(n5)CN(C5CCC(=O)NC5=O)C6=O)CC4)CC3)cc2)n1 (centres unmarked) [Example 26, N-(3-(2-((4-(4-((1-(6-(2,6-dioxopiperidin-3-yl)-5-oxo-6,7-dihydro-5H-pyrrolo[3,4-b]pyridin-2-yl)piperidin-4-yl)methyl)piperazin-1-yl)phenyl)amino)pyrimidin-4-yl)-5-fluoro-2-methylphenyl)-3-isopropoxyazetidine-1-carboxamide]
71.5 | 94.5 | 26.5 | Cc1c(NC(=O)N2CC(OC(C)C)C2)cc(F)cc1-c1ccnc(Nc2ccc(N3CCN(CC4CN(c5ccc6c(c5)C(=O)N(C5CCC(=O)NC5=O)C6=O)C4)CC3)cc2)n1 (centres unmarked) [Example 27, N-(3-(2-((4-(4-((1-(2-(2,6-dioxopiperidin-3-yl)-1,3-dioxoisoindolin-5-yl)azetidin-3-yl)methyl)piperazin-1-yl)phenyl)amino)pyrimidin-4-yl)-5-fluoro-2-methylphenyl)-3-isopropoxyazetidine-1-carboxamide]
40.5 | 81.5 | 7 | Cc1cc(NC(=O)N2CC(OC(C)C)C2)cc(-c2ccnc(Nc3ccc(N4CCN(CC5CCN(c6ccc7c(c6)C(=O)N(C6CCC(=O)NC6=O)C7=O)CC5)CC4)cc3)n2)c1 (centres unmarked) [Example 29, N-(3-(2-((4-(4-((1-(2-(2,6-dioxopiperidin-3-yl)-1,3-dioxoisoindolin-5-yl)piperidin-4-yl)methyl)piperazin-1-yl)phenyl)amino)pyrimidin-4-yl)-5-methylphenyl)-3-isopropoxyazetidine-1-carboxamide]
93.5 | 99.5 | 49.5 | Cc1cc(-c2ccnc(Nc3ccc(N4CCN(CC5CCN(c6ccc7c(c6)C(=O)N(C6CCC(=O)NC6=O)C7=O)CC5)CC4)cc3)n2)ccc1CNC(=O)c1cnn(C(C)C)c1 (centres unmarked) [Example 33, N-(4-(2-((4-(4-((1-(2-(2,6-dioxopiperidin-3-yl)-1,3-dioxoisoindolin-5-yl)piperidin-4-yl)methyl)piperazin-1-yl)phenyl)amino)pyrimidin-4-yl)-2-methylbenzyl)-1-isopropyl-1H-pyrazole-4-carboxamide]
90 | 99.5 | 41 | Cc1cc(-c2ccnc(Nc3ccc(N4CCN(CC5CN(c6ccc7c(c6)C(=O)N(C6CCC(=O)NC6=O)C7=O)C5)CC4)cc3)n2)ccc1CNC(=O)c1cnn(C(C)C)c1 (centres unmarked) [Example 34, N-(4-(2-((4-(4-((1-(2-(2,6-dioxopiperidin-3-yl)-1,3-dioxoisoindolin-5-yl)azetidin-3-yl)methyl)piperazin-1-yl)phenyl)amino)pyrimidin-4-yl)-2-methylbenzyl)-1-isopropyl-1H-pyrazole-4-carboxamide]
93.5 | 99.5 | 50.5 | Cc1cc(-c2ccnc(Nc3cnn(C4CCN(CC5CCN(c6ccc7c(c6)C(=O)N(C6CCC(=O)NC6=O)C7=O)CC5)CC4)c3)n2)ccc1CNC(=O)c1cnn(C(C)C)c1 (centres unmarked) [Example 35, N-(4-(2-((1-(1-((1-(2-(2,6-dioxopiperidin-3-yl)-1,3-dioxoisoindolin-5-yl)piperidin-4-yl)methyl)piperidin-4-yl)-1H-pyrazol-4-yl)amino)pyrimidin-4-yl)-2-methylbenzyl)-1-isopropyl-1H-pyrazole-4-carboxamide]

The remaining lines, values behind:

SMILES | BTK degradation (%) 10 nM [%] | BTK degradation (%) 100 nM [%] | BTK degradation (%) 1 nM [%]
Cc1c(NC(=O)c2cn(C(C)(C)C)nn2)cc(F)cc1-c1ccnc(Nc2ccc(N3CCN(CC4CCN(c5ccc6c(c5)C(=O)N(C5CCC(=O)NC5=O)C6=O)CC4)CC3)cc2)n1 (centres unmarked) [Example 25, 1-(tert-butyl)-N-(3-(2-((4-(4-((1-(2-(2,6-dioxopiperidin-3-yl)-1,3-dioxoisoindolin-5-yl)piperidin-4-yl)methyl)piperazin-1-yl)phenyl)amino)pyrimidin-4-yl)-5-fluoro-2-methylphenyl)-1H-1,2,3-triazole-4-carboxamide] | 8.5 | 24 | 
Cc1cc(CNC(=O)N2CC(OC(C)C)C2)cc(-c2ccnc(Nc3ccc(N4CCN(CC5CCN(c6ccc7c(c6)C(=O)N(C6CCC(=O)NC6=O)C7=O)CC5)CC4)cc3)n2)c1 (centres unmarked) [Example 28, N-(3-(2-((4-(4-((1-(2-(2,6-dioxopiperidin-3-yl)-1,3-dioxoisoindolin-5-yl)piperidin-4-yl)methyl)piperazin-1-yl)phenyl)amino)pyrimidin-4-yl)-5-methylbenzyl)-3-isopropoxyazetidine-1-carboxamide] | 12 | 4.5 | 18
Cc1cc(-c2ccnc(Nc3ccc(N4CCN(CC5CCN(c6ccc7c(c6)C(=O)N(C6CCC(=O)NC6=O)C7=O)CC5)CC4)cc3)n2)ccc1COC(=O)N1CC(OC(C)C)C1 (centres unmarked) [Example 30, 4-(2-((4-(4-((1-(2-(2,6-dioxopiperidin-3-yl)-1,3-dioxoisoindolin-5-yl)piperidin-4-yl)methyl)piperazin-1-yl)phenyl)amino)pyrimidin-4-yl)-2-methylbenzyl 3-isopropoxyazetidine-1-carboxylate] | 20.5 | 91.5 | −1
Cc1cc(-c2ccnc(Nc3ccc(N4CCN(CC5CN(c6ccc7c(c6)C(=O)N(C6CCC(=O)NC6=O)C7=O)C5)CC4)cc3)n2)ccc1CNC(=O)c1cnn(C(C)(C)C)c1 (centres unmarked) [Example 31, 1-(tert-butyl)-N-(4-(2-((4-(4-((1-(2-(2,6-dioxopiperidin-3-yl)-1,3-dioxoisoindolin-5-yl)azetidin-3-yl)methyl)piperazin-1-yl)phenyl)amino)pyrimidin-4-yl)-2-methylbenzyl)-1H-pyrazole-4-carboxamide] | 94.5 | 98.5 | 61.5
Cc1cc(-c2ccnc(Nc3ccc(N4CCN(CC5CN(c6ccc7c(c6)C(=O)N(C6CCC(=O)NC6=O)C7=O)C5)CC4)cc3)n2)ccc1CNC(=O)c1cn(C(C)(C)C)nn1 (centres unmarked) [Example 32, 1-(tert-butyl)-N-(4-(2-((4-(4-((1-(2-(2,6-dioxopiperidin-3-yl)-1,3-dioxoisoindolin-5-yl)azetidin-3-yl)methyl)piperazin-1-yl)phenyl)amino)pyrimidin-4-yl)-2-methylbenzyl)-1H-1,2,3-triazole-4-carboxamide] | 92 | 98.5 | 58.5
Cc1cc(-c2ccnc(Nc3cnn(C4CCN(CC5CN(c6ccc7c(c6)C(=O)N(C6CCC(=O)NC6=O)C7=O)C5)CC4)c3)n2)ccc1CNC(=O)c1cnn(C(C)C)c1 (centres unmarked) [Example 36, N-(4-(2-((1-(1-((1-(2-(2,6-dioxopiperidin-3-yl)-1,3-dioxoisoindolin-5-yl)azetidin-3-yl)methyl)piperidin-4-yl)-1H-pyrazol-4-yl)amino)pyrimidin-4-yl)-2-methylbenzyl)-1-isopropyl-1H-pyrazole-4-carboxamide] | 94 | 99 | 60
